According to patent US20260184749A1, “CARBOHYDRATE BINDING POLYPEPTIDE OF SAVALIA SAVAGLIA” (University of Belgrade, priority 2021, published 2026):
Where two headings read alike, the source gives them in different places.

Tests used:
[1] = test system: Sava lectin (Savalithsin) from Savalia (Gerardia) savaglia, isoforms SEQ ID NOs: 1, 2, 3 and 4; test: Isothermal titration calorimetry (ITC) of carbohydrate binding to Sava lectin; conditions: pH 7.4, 50 mM PBS, 25° C.
From the text: The present inventors have identified, purified and characterised a novel lectin from Savalia (Gerardia) savaglia. The inventors have identified four very closely-related isoforms of this lectin (see Table 1). The sequences of the isoforms are provided as SEQ ID NOs: 1, 2, 3 and 4. SEQ ID NO: 1 is the sequence of the most prevalent (dominant) form expressed in Savalia (Gerardia) savaglia (as determined by mass spectrometry). […] The lectin may be referred to herein as Sava lectin or Savalithsin. This term may be used to refer to a mixture comprising the four isoforms, which may optionally include other isoforms or variants as defined herein. References to recombinantly produced Savalithsin typically refer to the dominant form.
Isothermal titration calorimetry (ITC) experiments were performed with Sava lectin at pH 7.4 in 50 mM phosphate buffered saline (PBS) at 25° C. and in the presence of different D-carbohydrates (mono- and di-saccharides).
Thermodynamic parameters of mannose and methyl mannoside binding were obtained by algorithm for global fitting of the model function to the experimental ITC thermograms based on the iterative non-linear Levenberg-Marquardt χ2 regression procedure. The best agreement between model and experimental data was achieved when two binding sites per protein molecule were assumed.

[2] = test system: Sava lectin (Savalithsin) from Savalia (Gerardia) savaglia, isoforms SEQ ID NOs: 1, 2, 3 and 4; test: Turbidimetric activity assay of carbohydrate binding to Sava lectin
Experimental: Turbidimetric activity assay was performed to confirm ITC results. […] This small binding constant produces small heat effect that cannot be observed by ITC.

[3] = molecular target: Sava lectin (Savalithsin) from Savalia (Gerardia) savaglia, isoforms SEQ ID NOs: 1, 2, 3 and 4; test: Microscale thermophoresis (MST) of carbohydrate binding to Sava lectin
From the text: Microscale thermophoresis (MST) experiments confirmed binding of mannose and methyl mannoside. […] Two Km values indicate existence of two binding sites that could be different of allosterically connected.

[4] = test system: Sava lectin (Savalithsin) from Savalia (Gerardia) savaglia, isoforms SEQ ID NOs: 1, 2, 3 and 4; test: Differential scanning calorimetry (DSC) of Sava lectin in the presence of carbohydrates; type: binding; conditions: for Melting point (Tm) of Sava lectin in the presence of carbohydrate: PBS pH 7.4, Sava lectin alone Tm 79.17° C.
Experimental: Experiments with differential scanning calorimetry confirmed binding of mannose and methyl mannoside, see discussion of thermal stability below.
Thermal stability was determined by differential scanning calorimetry (DSC). Experiments were performed in PBS at pH 7.4. […] Increased Tm indicates stabilization of protein structure in the presence of bound carbohydrate.

[5] = molecular target: the molecule itself; test: MALDI-TOF mass spectrometry of Sava lectin (self-association, oligomers) [top]

OC[C@H]1OC(O)[C@H](O)[C@@H](O)[C@@H]1O (stereo partly drawn) [D-glucose] was tested, and the “Binding observed using ITC” value [1] was “did not observed binding”, the “Binding (turbidimetric activity assay)” value [2] was “weak binding” and the “Binding constant compared with D-mannose” value ([2]; relative to D-mannose) was “two orders of magnitude lower than for D-mannose”.

With OC[C@H]1OC(O)[C@@H](O)[C@@H](O)[C@@H]1O (stereo partly drawn) [D-mannose] the “Binding constant (Kb)” value [1] was 2514 M⁻¹, the Kd ([3]; first of two binding events, read-out: Dissociation constant (Kd), first binding event) was 0.0265 mM and the Kd ([3]; second of two binding events, read-out: Dissociation constant (Kd), second binding event) was 11.2 mM. The “Melting point (Tm) of Sava lectin in the presence of carbohydrate” value [4] was 79.63 °C.

For CC(=O)N[C@H]1C(O)O[C@H](CO)[C@H](O)[C@@H]1O (stereo partly drawn) [N-acetyl galactosamine], the “Binding observed using ITC” value [1] was “did not observed binding”.

For CC(=O)N[C@H]1C(O)O[C@H](CO)[C@@H](O)[C@@H]1O (stereo partly drawn) [N-acetyl glucosamine], the “Binding observed using ITC” value [1] was “did not observed binding”.

O=C[C@@H](O)[C@H](O)[C@H](O)CO [arabinose] was tested, and the “Binding observed using ITC” value [1] was “did not observed binding”.

C[C@@H]1OC(O)[C@@H](O)[C@H](O)[C@@H]1O (stereo partly drawn) [fucose] was tested, and the “Binding observed using ITC” value [1] was “did not observed binding”.

OC[C@H]1OC(O)[C@H](O)[C@@H](O)[C@H]1O (stereo partly drawn) [galactose] was tested, and the “Binding observed using ITC” value [1] was “did not observed binding” and the “Tm of Sava lectin in the presence of carbohydrate, compared with Sava lectin only” value ([4]; PBS pH 7.4) was “the same as in the experiment with Sava lectin only”.

With OC[C@H]1O[C@@H](O[C@H]2[C@H](O)[C@@H](O)C(O)O[C@@H]2CO)[C@H](O)[C@@H](O)[C@H]1O (stereo partly drawn) [lactose] the “Binding observed using ITC” value [1] was “did not observed binding”.

In the case of OC[C@@H](O)[C@@H](O)[C@H](O)[C@H](O)CO [mannitol], the “Binding observed using ITC” value [1] is reported as “did not observed binding”.

For CO[C@H]1O[C@H](CO)[C@@H](O)[C@H](O)[C@@H]1O [methyl alpha-D-mannoside], the “Binding constant (Kb)” value [1] was 1270 M⁻¹, the Kd ([3]; read-out: Dissociation constant (Kd)) was 13.2 mM and the “Melting point (Tm) of Sava lectin in the presence of carbohydrate” value [4] was 79.55 °C.

With OC[C@H]1O[C@H](OC[C@H]2O[C@H](O[C@]3(CO)O[C@H](CO)[C@@H](O)[C@@H]3O)[C@H](O)[C@@H](O)[C@@H]2O)[C@H](O)[C@@H](O)[C@H]1O [raffinose] the “Binding observed using ITC” value [1] was “did not observed binding”.

With C[C@@H]1OC(O)[C@H](O)[C@H](O)[C@H]1O (stereo partly drawn) [rhamnose] the “Binding observed using ITC” value [1] was “did not observed binding”.

B1: Sava lectin (isolated and purified from the coral Savalia (Gerardia) savaglia) (other)
chain: SNLRWVATSGGKVPEHAVVGGENFSGEVLYVARVRINSGLTPGKMAPSYRVAHTSYGGKEFYKSDYELITNPGWKSHIEWKYHEGHSKPTNAVLGGTDQRNLYVARFMYGDGHMLSGKVLFDYGKAYLGYNNKEYESTKFYVLVEHPSW
notes: No glycosylation or other post-translational modification was observed; also called Savalithsin
B1: binds [5].
